Laboratory results published in PubChem BioAssay AID2060893 (Molecular Pharmacology Branch, DTP, NCI, 2025).
“And” between values parts separate entries of the source, which are not always exact repeats. Identical values can stand only once.

Test system: K86415-001-R-J1-PDC complex spheroids, viability
Assay: Anticancer human tumor K86415-001-R-J1-PDC patient-derived lung adenocarcinoma cell line growth inhibition [RAS]
Conditions: for viability, T/C: stronger effect = lower value
Method in brief: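 Tumour cells grown as complex spheroids with HUVEC endothelial cells and mesenchymal stem cells, treated with RAS pathway inhibitor combinations. Each agent spans half-log steps from near clinical Cmax, or 10 microM where Cmax is unknown.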

[1] = curve of first compound, second compound 0.000949 µM
[2] = curve of first compound, second compound 0.003 µM
[3] = curve of first compound, second compound 0.00949 µM
[4] = curve of first compound, second compound 0.03 µM
[5] = curve of first compound, second compound 0.0949 µM
[6] = curve of first compound, second compound 0.3 µM
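Further: spheroids exposed to agents for seven days before readout.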

With `CC(Nc1ccc2c(c1)OCCn1cc(N3C(=O)OCC3C(F)F)nc1-2)C(N)=O` (stereo unspecified) + CCn1c(-c2cccnc2C(C)OC)c2c3cc(ccc31)N1CCOC(CC(NC(=O)C(C(C)C)N(C)C(=O)C3(F)CCN(C(=O)C#CC(C)(C)N(C)C)CC3)C(=O)N3CCCC(N3)C(=O)OCC(C)(C)C2)C1 the IC50 [1] was less than 31.6 nM, the IC50 [2] was less than 31.6 nM and the IC50 [3] was less than 31.6 nM. For the same compound, the IC50 [4] was less than 31.6 nM, the IC50 [5] was less than 31.6 nM and the IC50 [6] was less than 31.6 nM. The viability, T/C (second compound 0.000949 µM, first compound 0.0316 µM) was 26.6%, the viability, T/C (second compound 0.000949 µM, first compound 0.1 µM) was 24.9% and the viability, T/C (second compound 0.000949 µM, first compound 0.316 µM) was 14.1%. For the same compound, the viability, T/C (second compound 0.000949 µM, first compound 1 µM) was 24.3%, the viability, T/C (second compound 0.000949 µM, first compound 3.16 µM) was 8.98% and the viability, T/C (second compound 0.000949 µM, first compound 10 µM) was 1.64%. The viability, T/C (second compound 0.003 µM, first compound 0.0316 µM) was 11.9%, the viability, T/C (second compound 0.003 µM, first compound 0.1 µM) was 8% and the viability, T/C (second compound 0.003 µM, first compound 0.316 µM) was 6.61%. The viability, T/C (second compound 0.003 µM, first compound 1 µM) was 4.14%, the viability, T/C (second compound 0.003 µM, first compound 3.16 µM) was 2.69% and the viability, T/C (second compound 0.003 µM, first compound 10 µM) was 0.95%. It also gave a viability, T/C (second compound 0.00949 µM, first compound 0.0316 µM) of 9.31%, a viability, T/C (second compound 0.00949 µM, first compound 0.1 µM) of 8.26% and a viability, T/C (second compound 0.00949 µM, first compound 0.316 µM) of 6.9%. It also gave a viability, T/C (second compound 0.00949 µM, first compound 1 µM) of 3.65%, a viability, T/C (second compound 0.00949 µM, first compound 3.16 µM) of 1.68% and a viability, T/C (second compound 0.00949 µM, first compound 10 µM) of 1.1%. For the same compound, the viability, T/C (second compound 0.03 µM, first compound 0.0316 µM) was 8.58%, the viability, T/C (second compound 0.03 µM, first compound 0.1 µM) was 7.61% and the viability, T/C (second compound 0.03 µM, first compound 0.316 µM) was 6.15%. It also gave a viability, T/C (second compound 0.03 µM, first compound 1 µM) of 2.63%, a viability, T/C (second compound 0.03 µM, first compound 3.16 µM) of 1.91% and a viability, T/C (second compound 0.03 µM, first compound 10 µM) of 1.86%. The viability, T/C (second compound 0.0949 µM, first compound 0.0316 µM) was 10.4%, the viability, T/C (second compound 0.0949 µM, first compound 0.1 µM) was 8.62% and the viability, T/C (second compound 0.0949 µM, first compound 0.316 µM) was 4.05%. It also gave a viability, T/C (second compound 0.0949 µM, first compound 1 µM) of 3.24%, a viability, T/C (second compound 0.0949 µM, first compound 3.16 µM) of 1.57% and a viability, T/C (second compound 0.0949 µM, first compound 10 µM) of 1.22%. The viability, T/C (second compound 0.3 µM, first compound 0.0316 µM) was 8.96%, the viability, T/C (second compound 0.3 µM, first compound 0.1 µM) was 6.86% and the viability, T/C (second compound 0.3 µM, first compound 0.316 µM) was 3.94%. The viability, T/C (second compound 0.3 µM, first compound 1 µM) was 2.09%, the viability, T/C (second compound 0.3 µM, first compound 3.16 µM) was 1.58% and the viability, T/C (second compound 0.3 µM, first compound 10 µM) was 1.59%.

`C=CC(=O)Nc1cc(Nc2nccc(-c3cn(C)c4ccccc34)n2)c(OC)cc1N(C)CCN(C)C` was tested, and the viability, T/C (compound 0.00316 µM) was 105% [middle of 4 runs], the viability, T/C (compound 0.01 µM) was 98.8% [middle of 4 runs] and the viability, T/C (compound 0.0316 µM) was 101% [middle of 4 runs]. The viability, T/C (compound 0.1 µM) was 85.1% (2×) and 93.4% and 76.6%, the viability, T/C (compound 0.316 µM) was 67.2% [middle of 4 runs] and the viability, T/C (compound 1 µM) was 40.9% [middle of 4 runs]. The IC50 (curve of compound) was 659 nM [middle of 4 runs].

For `CCc1c2c(nc3ccc(O)cc13)-c1cc3c(c(=O)n1C2)COC(=O)[C@]3(O)CC` + CCn1c(-c2cc(N3CCN(C)CC3)cnc2C(C)OC)c2c3cc(ccc31)-c1csc(n1)CC(NC(=O)C1CC1C)C(=O)N1CCCC(N1)C(=O)OCC(C)(C)C2, the IC50 [1] was less than 0.949 nM, the IC50 [2] was less than 0.949 nM and the IC50 [3] was less than 0.949 nM. It also gave an IC50 [4] of less than 0.949 nM, an IC50 [5] of less than 0.949 nM and an IC50 [6] of less than 0.949 nM. It also gave a viability, T/C (second compound 0.000949 µM, first compound 0.000949 µM) of 43.2%, a viability, T/C (second compound 0.000949 µM, first compound 0.003 µM) of 23.9% and a viability, T/C (second compound 0.000949 µM, first compound 0.00949 µM) of 12.9%. For the same compound, the viability, T/C (second compound 0.000949 µM, first compound 0.03 µM) was 16.1%, the viability, T/C (second compound 0.000949 µM, first compound 0.0949 µM) was 11.6% and the viability, T/C (second compound 0.000949 µM, first compound 0.3 µM) was 4.09%. For the same compound, the viability, T/C (second compound 0.003 µM, first compound 0.000949 µM) was 22%, the viability, T/C (second compound 0.003 µM, first compound 0.003 µM) was 13.5% and the viability, T/C (second compound 0.003 µM, first compound 0.00949 µM) was 12.4%. For the same compound, the viability, T/C (second compound 0.003 µM, first compound 0.03 µM) was 13.3%, the viability, T/C (second compound 0.003 µM, first compound 0.0949 µM) was 10.2% and the viability, T/C (second compound 0.003 µM, first compound 0.3 µM) was 3.14%. The viability, T/C (second compound 0.00949 µM, first compound 0.000949 µM) was 9.02%, the viability, T/C (second compound 0.00949 µM, first compound 0.003 µM) was 7.98% and the viability, T/C (second compound 0.00949 µM, first compound 0.00949 µM) was 8.68%. For the same compound, the viability, T/C (second compound 0.00949 µM, first compound 0.03 µM) was 8.25%, the viability, T/C (second compound 0.00949 µM, first compound 0.0949 µM) was 5.09% and the viability, T/C (second compound 0.00949 µM, first compound 0.3 µM) was 2.46%. For the same compound, the viability, T/C (second compound 0.03 µM, first compound 0.000949 µM) was 5.24%, the viability, T/C (second compound 0.03 µM, first compound 0.003 µM) was 5.47% and the viability, T/C (second compound 0.03 µM, first compound 0.00949 µM) was 3.66%. The viability, T/C (second compound 0.03 µM, first compound 0.03 µM) was 3.44%, the viability, T/C (second compound 0.03 µM, first compound 0.0949 µM) was 2.88% and the viability, T/C (second compound 0.03 µM, first compound 0.3 µM) was 1.87%. The viability, T/C (second compound 0.0949 µM, first compound 0.000949 µM) was 3.46%, the viability, T/C (second compound 0.0949 µM, first compound 0.003 µM) was 3.37% and the viability, T/C (second compound 0.0949 µM, first compound 0.00949 µM) was 2.84%. For the same compound, the viability, T/C (second compound 0.0949 µM, first compound 0.03 µM) was 2.41%, the viability, T/C (second compound 0.0949 µM, first compound 0.0949 µM) was 1.76% and the viability, T/C (second compound 0.0949 µM, first compound 0.3 µM) was 0.94%. The viability, T/C (second compound 0.3 µM, first compound 0.000949 µM) was 2.47%, the viability, T/C (second compound 0.3 µM, first compound 0.003 µM) was 2.36% and the viability, T/C (second compound 0.3 µM, first compound 0.00949 µM) was 2.47%. For the same compound, the viability, T/C (second compound 0.3 µM, first compound 0.03 µM) was 2.01%, the viability, T/C (second compound 0.3 µM, first compound 0.0949 µM) was 2.07% and the viability, T/C (second compound 0.3 µM, first compound 0.3 µM) was 0.89%.
